These are literature values, as cited in patent US20110060040A1, “USES OF ACYLOXYALKYL CARBAMATE PRODRUGS OF TRANEXAMIC ACID” (XenoPort, Inc., priority 2009, published 2011).

The conditions of data set [1]: human patients, prodrug given orally.
For data set [2] the following is noted: patients undergoing total knee arthroplasty.
For data set [3] the following is noted: cardiopulmonary bypass surgery, prophylactic administration.

For the compound `CCOC(=O)OC(C)OC(=O)[C@H]1CC[C@H](CN)CC1` (relative stereo) [Kabi 2161, 1-(ethoxycarbonyl)oxyethyl trans-4-(aminomethyl)-cyclohexanecarboxylate], the “oral bioavailability of tranexamic acid” value in data set [1] is reported as “markedly improved”.
As for `NC[C@H]1CC[C@H](C(=O)O)CC1` [tranexamic acid, trans-4-(aminomethyl)-cyclohexanecarboxylic acid], in data set [2], the “reduction of total blood loss” value is listed as “up to 50%”. Moreover, the “reduction of post-operative bleeding” value in data set [3] was 30-40%. Also, under “in vivo”, the excretion result is listed as “most is excreted unchanged by the kidney”, the “fraction of administered tranexamic acid metabolized” value was “Only a small fraction” and the volume of distribution was 9 to 12 L. Further, the oral bioavailability result (oral) is reported as “ca. 30%”.
